Data published in US20060148763A1, “Compounds and methods for regulating triglyceride levels” (priority 2005, published 2006).
Values joined by “and” are separate entries in the source; they are usually repeats but may differ in a detail not shown here. Equal entries are not always repeated.

How the values were obtained:
[1] = tested on: serum LDL; assay: Phase II cross-over study of P5P alone and with lisinopril in hypertensive type 2 diabetic patients: LDL; format: in vivo, human; conditions: for LDL change, 16 wk vs. baseline (b): LDL non-stratified data; for reduction in serum LDL levels: patients having elevated LDL levels (>2.59 mmol/L)
Description: Objective—A phase II clinical study was conducted to determine the effects of pyridoxal-5′-phosphate in combination with lisinopril on blood pressure and metabolic function in hypertensive patients with type 2 diabetes.
Summary of Study Design—The phase II study was a randomized, parallel group, cross-over, double-blinded to study medication, placebo-controlled comparison of P5P BID at total daily doses of 100, 300, or 1000 mg alone and in combination with 20 mg lisinopril given once daily (QD). In order to protect against antihypertensive and metabolic carry-over effects of lisinopril, all patients were randomized in 2 different treatment sequences. Patients randomized in the first treatment sequence receive an 8-week treatment with lisinopril 20 mg and P5P (or placebo) and then an 8-week treatment with P5P alone (or placebo). Patients randomized in the second treatment sequence receive an 8-week treatment with P5P alone and then an 8-week treatment with lisinopril 20 mg and P5P (or placebo). In each treatment sequence, all patients were randomized to P5P at the different prespecified dosages.
Mean trough sitting and standing BP were measured at each visit. Twenty-four hour ambulatory BP monitoring (ABPM) were performed at Visit 2 prior to randomization (end of washout period) and after week 8 (Visit 5) and week 16 (Visit 8) weeks of active therapy. Laboratory tests were performed at screening (Visit 1), prior to randomization (Visit 2), at week 2 (Visit 3a), week 8 (Visit 5), week 10 (Visit 6a), and at week 16 (Visit 8).
Treatment Plan—Two to Four-week Washout (Baseline) Period. Patients were instructed on the proper procedure for discontinuing their current antihypertensive medications (discontinuation or tapering) according to the manufacturer's label specifications. If a patient's current antihypertensive treatment needed to be tapered earlier, the Investigator complied with the corresponding timelines before randomization. With the exception of any tapering off of prior therapy, if any, no other anti-hypertensive medication was given to the patient during the washout period. Patients continued any existing diabetic treatment with sulfonylureas (tolbutamide, tolazamide, acetohexamide, chlorpropamide and second generation glyburide, glipizide, glimepiride), D-Phenylalanine derivatives, metformin, thiazolidinediones, acarbose, miglitol, and/or insulin throughout the study. Patients received placebo to be taken twice daily during the washout period. Standard diabetic medication was maintained throughout study. The duration of the washout period was two to four weeks, at the discretion of the Investigator taking into consideration whether the patient's blood pressure had stabilized following removal of any prior antihypertensive medication.
Active (Study) Medication Period: After the washout period, eligible patients were randomized to one of the 2 following sequences of treatment for 16 weeks.
Week 0 to 8: Treatment period (P5P alone (or placebo) or P5P (or placebo) and Lisinopril)
Week 8 to 16: Treatment period (P5P alone (or placebo) or P5P (or placebo) and Lisinopril)
Study Groups—The patients were randomized into one of […] groups:
Sequence 1 P5P 300 mg and then P5P 300 mg+Lisinopril 20 mg
Sequence 2 P5P 300 mg+Lisinopril 20 mg and then P5P 300 mg alone
All medications were taken at the same time each day during washout and treatment periods:
Other Efficacy Endpoints—Analytical efficacy measurements, including markers of metabolic function (insulinemia, fasting serum glucose, glycated hemoglobin, LDL, HDL, non-HDL and triglycerides), endothelial function (ICAM-1, VCAM-1, E-selectin and albuminuria), kidney function (creatinine, glomular filtration rate), CRP and homocysteine, were conducted on blood samples taken on Visits 2, 5 and 8. Samples were sent to a central laboratory for analysis.

[2] = tested on: serum triglyceride levels; assay: 14-week open-label forced dose-escalation study of P5P in hypertensive diabetic patients: triglyceride level; format: in vivo, human; conditions: for Triglycerides, Percentage Difference: average Visit 12 vs Visit 1
Description: Overview—The study was a 14-week, open-label, forced, dose-escalation study of the efficacy and safety of P5P administered once daily over a dose range of 250 mg to 750 mg, for the treatment of mild to moderate hypertension and hyperlipidemia, in patients with coexisting diabetes mellitus.
Patient Definition—Patients meeting all of the inclusion criteria and none of the exclusion criteria were eligible for enrollment. The primary inclusion criteria were hypertension and diabetes. […] Other than having diabetes and hypertension, patients must have been in good health for their age. A history and physical examination must have been within age-related normal limits, or if abnormal, considered clinically insignificant in the opinion of the investigator. Laboratory tests (CBC with differential, prothrombin and partial thrombo-plastin times, platelet count, and urinalysis and blood chemistry panel), must have been normal, or if abnormal, considered clinically insignificant.
Exclusion criteria included the presence or history (past 12 months) of accelerated or malignant hypertension, as evidenced by hemorrhage and/or exudate, and/or papilloedema on funduscopic examination. Patients having a history of angioedema of the face, lips, tongue, glottis or larynx when treated with ACE inhibitors were excluded. Patients having a diastolic BP>114 mm Hg, and/or systolic BP>200 mm Hg at screening were excluded. Patients with similar readings at the end of the placebo lead-in period were dropped from further participation in the study. During the placebo lead-in period patients who had signs of bradycardia (<45 bpm) or a resting heart rate of >100 bpm were not advanced to the next stage of the study, but rather dropped from further participation.
Exclusion criteria included the presence or history (past 6 months) of myocardial infarction or cerebrovascular accident and clinically significant cardiac pathology such as congestive heart failure, cardio-genic shock, non-controlled arrhythmias, acute myocarditis or pericarditus, significant valvular or congestive heart disease and unstable angina pectoris; presence or evidence of atrioventricular block (second/third degree), or sick sinus syndrome, or any other conduction defect or abnormality including the presence/history of atrial fibrillation or flutter, associated with pre-excitation syndrome; clinically significant gastrointestinal disease, renal insufficiency (serum creatinine […]), hepatic disease, or electrolyte imbalance (serum potassium <3.5 or >5.3 mmol/L, serum sodium <136->145 mmol/L); presence of bronchial asthma or chronic obstructive pulmonary disease; or the presence of any clinically significant concomitant disease that in the opinion of the investigator could interfere with the patient's participation in the study, or confound the outcome variables. Patients having any clinically significant concomitant disease that could interfere with the patient's participation in the study, or confound the outcome variables were excluded. Patients with a history of alcohol abuse or illicit drug use in the 12 months prior to beginning this protocol were excluded. Patients with a terminal illness were excluded. Patients with an arm circumference >41 cm were excluded. Pregnant females, women who were breast-feeding or women of child-bearing potential must have used adequate contraception. Patients who have had therapy with an investigational compound within 30 days prior to entry into the study were excluded. The use of the following medications was cause for exclusion, each had to have been safely discontinued prior to the placebo lead-in phase of the study, and must been withheld until the protocol had been completed: all diuretics and antihypertensive drugs (including beta-blockers, calcium-channel blockers, vasodilators, ACE inhibitors), MAO inhibitors, all anti-arrhythmic drugs, digitalis, major tranquilizers, antidepressants, cimetidine, corticosteroids, and antineoplastics. […]

[3] = P5P 300 mg, patients with LDL >2.59 mmol/L

SMILES: Cc1ncc(COP(=O)(O)O)c(C=O)c1O [P5P, pyridoxal-5′-phosphate]
- LDL change, 16 wk vs. baseline (b) ([1]; P5P 300 mg): −0.15 mmol/L (p = 0.194)b
- reduction in serum LDL levels ([1]; P5P 300 mg): about 0.41 mmol/L
- LDL change [1, 3]: −0.41 mmol/L (p = 0.04)
- LDL reduction [1, 3]: (12% reduction)
- LDL change, 16 wk vs. baseline (b) ([1]; P5P 1000 mg): −0.15 mmol/L (p = 0.197)b
- reduction in serum LDL levels ([1]; P5P 1000 mg): about 0.53 mmol/L
- LDL change ([1]; P5P 1000 mg, patients with LDL >2.59 mmol/L): −0.53 mmol/L (p = 0.075)
- average reduction in serum LDL levels (placebo corrected) ([1]; patients taking 300 mg or 1000 mg of P5P): 0.27 mmol/L
- Triglycerides, Percentage Difference ([2]; Table 2): −22.1%
- Triglycerides, Visit 1, Average ([2]; Table 2, average of 11 patients, screening, before treatment): 246.1 mg/dL
- Triglycerides, Visit 12, Average ([2]; Table 2, average of 11 patients, week 14): 191.5 mg/dL
- Triglycerides, Percentage Difference ([2]; Table 3, elevated triglycerides (>150 mg/dL)): −25.7%
- Triglycerides, Visit 1, Average ([2]; Table 3, elevated triglycerides (>150 mg/dL), average of 7 patients, screening): 326.9 mg/dL
- Triglycerides, Visit 12, Average ([2]; Table 3, elevated triglycerides (>150 mg/dL), average of 7 patients, week 14): 242.9 mg/dL
- Triglycerides, Visit 1 ([2]; Table 3, patients with elevated triglycerides (>150 mg/dL), individual patients, screening, before treatment): 150 mg/dL and 601 mg/dL and 188 mg/dL and 180 mg/dL and 530 mg/dL and 442 mg/dL and 197 mg/dL
- Triglycerides, Visit 12 ([2]; Table 3, patients with elevated triglycerides (>150 mg/dL), individual patients, week 14): 166 mg/dL and 268 mg/dL and 160 mg/dL and 305 mg/dL and 286 mg/dL and 302 mg/dL and 213 mg/dL
- reduced triglyceride levels by (average) ([2]; hypertensive diabetic patients, end of 14 week study): approximately 22.1%
- reduced triglyceride levels by (average) ([2]; patients having elevated triglyceride levels (>150 mg/dL) prior to the study): approximately 25.7%
